≈ marks a conversion by molar mass, not a printed value.
Columns and labels:
Assay type in all cases: functional
Aspergillus fumigatus = experiment: Antifungal activity against Aspergillus fumigatus ATCC 16907 by M38-A protocol-based broth microdilution method
Cyberlindnera jadinii = experiment: Antifungal activity against Candida utilis ATCC 9226 by M27-A3 protocol-based broth microdilution method; details: Williopsis jadinii
Candida tropicalis = experiment: Antifungal activity against Candida tropicalis ATCC 13803 by M27-A3 protocol-based broth microdilution method
Candida albicans = experiment: Antifungal activity against Candida albicans ATCC 10231 by M27-A3 protocol-based broth microdilution method
[1] = Antifungal activity against Trichosporon cutaneum ATCC 28592 by M38-A protocol-based microdilution method; details: Cutaneotrichosporon cutaneum
Rhizopus arrhizus = experiment: Antifungal activity against Rhizopus oryzae ATCC 10329 by M38-A protocol-based microdilution method
Mucor hiemalis = experiment: Antifungal activity against Mucor hiemalis ATCC 8690 by M38-A protocol-based microdilution method

In the case of `CC(=O)c1nnn(C(Cn2ccnc2)c2ccc(Cl)cc2Cl)c1C` (stereo unspecified), the MIC (Aspergillus fumigatus) is reported as 16 µg/mL (≈ 43.9 µM), the MIC (Cyberlindnera jadinii) is reported as 16 µg/mL (≈ 43.9 µM) and the MIC (Candida tropicalis) is reported as 16 µg/mL (≈ 43.9 µM). It also gave an MIC (Candida albicans) of 16 µg/mL (≈ 43.9 µM), an MIC [1] of 16 µg/mL (≈ 43.9 µM) and an MIC (Rhizopus arrhizus) of 8 µg/mL (≈ 22 µM). It also gave an MIC (Mucor hiemalis) of 16 µg/mL (≈ 43.9 µM).
Compound `CCCCCc1c(S(=O)(=O)c2ccccc2)nnn1C(Cn1ccnc1)c1ccc(Cl)cc1Cl` (stereo unspecified) has an MIC (Aspergillus fumigatus) of 2 µg/mL (≈ 3.86 µM), an MIC (Cyberlindnera jadinii) of 0.25 µg/mL (≈ 0.482 µM) and an MIC (Candida tropicalis) of 0.06 µg/mL (≈ 0.116 µM). It also gave an MIC (Candida albicans) of 0.06 µg/mL (≈ 0.116 µM), an MIC [1] of 0.12 µg/mL (≈ 0.231 µM) and an MIC (Rhizopus arrhizus) of 0.5 µg/mL (≈ 0.964 µM). It also gave an MIC (Mucor hiemalis) of 0.25 µg/mL (≈ 0.482 µM).
`CCCCC(C)(C)c1cnnn1C(Cn1ccnc1)c1ccc(Cl)cc1Cl` (stereo unspecified) showed an MIC (Aspergillus fumigatus) of 0.5 µg/mL (≈ 1.23 µM), an MIC (Cyberlindnera jadinii) of 2 µg/mL (≈ 4.92 µM) and an MIC (Candida tropicalis) of 0.03 µg/mL (≈ 0.0738 µM). It also gave an MIC (Candida albicans) of 0.03 µg/mL (≈ 0.0738 µM), an MIC [1] of 8 µg/mL (≈ 19.7 µM) and an MIC (Rhizopus arrhizus) of 8 µg/mL (≈ 19.7 µM). It also gave an MIC (Mucor hiemalis) of 16 µg/mL (≈ 39.4 µM).
`O=C(c1ccccc1)c1nnn(C(Cn2ccnc2)c2ccc(Cl)cc2Cl)c1-c1ccccc1` (stereo unspecified) showed an MIC (Aspergillus fumigatus) of 16 µg/mL (≈ 32.8 µM), an MIC (Cyberlindnera jadinii) of 16 µg/mL (≈ 32.8 µM) and an MIC (Candida tropicalis) of 0.06 µg/mL (≈ 0.123 µM). It also gave an MIC (Candida albicans) of 0.03 µg/mL (≈ 0.0614 µM), an MIC [1] of 16 µg/mL (≈ 32.8 µM) and an MIC (Rhizopus arrhizus) of 8 µg/mL (≈ 16.4 µM). For the same compound, the MIC (Mucor hiemalis) was 16 µg/mL (≈ 32.8 µM).
`CCC(C)n1ncn(-c2ccc(N3CCN(c4ccc(OCC5COC(Cn6cncn6)(c6ccc(Cl)cc6Cl)O5)cc4)CC3)cc2)c1=O` (stereo unspecified) [ITRACONAZOLE] gave an MIC (Aspergillus fumigatus) of 0.25 µg/mL (≈ 0.354 µM), an MIC (Cyberlindnera jadinii) of 0.06 µg/mL (≈ 0.085 µM) and an MIC (Candida tropicalis) of 0.03 µg/mL (≈ 0.0425 µM). For the same compound, the MIC (Candida albicans) was 0.03 µg/mL (≈ 0.0425 µM), the MIC [1] was 1 µg/mL (≈ 1.42 µM) and the MIC (Rhizopus arrhizus) was 0.5 µg/mL (≈ 0.709 µM). The MIC (Mucor hiemalis) was 1 µg/mL (≈ 1.42 µM).
`CSc1ccc(-c2cnnn2C(Cn2ccnc2)c2ccc(Cl)cc2Cl)cc1` (stereo unspecified) showed an MIC (Aspergillus fumigatus) of 16 µg/mL (≈ 37.2 µM), an MIC (Cyberlindnera jadinii) of 16 µg/mL (≈ 37.2 µM) and an MIC (Candida tropicalis) of 1 µg/mL (≈ 2.32 µM). For the same compound, the MIC (Candida albicans) was 4 µg/mL (≈ 9.29 µM), the MIC [1] was 16 µg/mL (≈ 37.2 µM) and the MIC (Rhizopus arrhizus) was 16 µg/mL (≈ 37.2 µM). The MIC (Mucor hiemalis) was 16 µg/mL (≈ 37.2 µM).
`Clc1ccc(C(Cn2ccnc2)n2nncc2C2CCCCC2)c(Cl)c1` (stereo unspecified) showed an MIC (Aspergillus fumigatus) of 16 µg/mL (≈ 41 µM), an MIC (Cyberlindnera jadinii) of 16 µg/mL (≈ 41 µM) and an MIC (Candida tropicalis) of 8 µg/mL (≈ 20.5 µM). For the same compound, the MIC (Candida albicans) was 16 µg/mL (≈ 41 µM), the MIC [1] was 16 µg/mL (≈ 41 µM) and the MIC (Rhizopus arrhizus) was 2 µg/mL (≈ 5.12 µM). The MIC (Mucor hiemalis) was 0.12 µg/mL (≈ 0.307 µM).
With `N#Cc1nnn(C(Cn2ccnc2)c2ccc(Cl)cc2Cl)c1-c1ccccc1` (stereo unspecified) the MIC (Aspergillus fumigatus) was 16 µg/mL (≈ 39.1 µM), the MIC (Cyberlindnera jadinii) was 16 µg/mL (≈ 39.1 µM) and the MIC (Candida tropicalis) was 16 µg/mL (≈ 39.1 µM). The MIC (Candida albicans) was 16 µg/mL (≈ 39.1 µM), the MIC [1] was 16 µg/mL (≈ 39.1 µM) and the MIC (Rhizopus arrhizus) was 16 µg/mL (≈ 39.1 µM). For the same compound, the MIC (Mucor hiemalis) was 16 µg/mL (≈ 39.1 µM).
